In patent US12448410B2, “Derivative of sarsasapogenin, pharmaceutical composition and use thereof” (Phytovent Biopharma, priority 2018, dated 2025) one finds inhibition and IC50 data, which are given here for 14 compounds.

Assay type in all cases: cell-based
One assay has as its system A549 lung cancer cells. The assay can be described thus: CTG cell proliferation, in vitro growth inhibition of A549 lung cancer cells. The settings on record: Homo sapiens, 72 hours, CellTiter-Glo. On the procedure: (§1) Study of CTG Cell Proliferation—Inhibition of In-Vitro Growth of Various Tumor Cells by Sarsasapogenin Derivative
(§2) Tumor cells included: human A549 cells (lung cancer cells) (ATCC, Catalog No. CCL-185), HeLa cells (cervical cancer cells) (ATCC, Catalog No. CCL-2), HepG2 cells (liver cancer cells) (ATCC, Catalog No. HB-8065), A375 cells (melanoma cells) (ATCC, Catalog No. CRL-1619), MCF-7 (breast cancer cell) (ATCC, Catalog No. HTB-22), U87MG (brain glioma cell) (ATCC, Catalog No. HTB-14), LN229 (ATCC, Catalog No. CRL-2611), A172 (ATCC, Catalog No. CRL-1620), KNS-42 (JCRB, Catalog No. IF050356), BE(2)-C (ATCC, Catalog No. CRL-2268), U118MG (ATCC, Catalog No. HTB-15), SW-1088 (ATCC, Catalog No. HTB-12), and SH-SY5Y (CLS, Catalog No. 300154).
(§3) The aforementioned tumor cells were inoculated into clear-bottom white 96-well culture plates (Corning, Catalog No. CLS3903) containing specific medium at 1.8 to 15×10^3 cells per well, and were incubated in an incubator (37° C., 5% CO2) for 24 hours.
(§4) A 10 mM stock solution was prepared by using DMSO (Sigma, Catalog No. D2650) for each compound, diluted with medium to required concentrations (final concentration of DMSO: 0.2%) and added into each well with 2 replicate wells/concentration. The cells were incubated in the incubator at 37° C. and 5% CO2 for 72 hours. Then, 100 μL of CellTiter-Glo® cell activity assay reagent (Promega, Catalog No. G7573) was added into each well and well mixed using a shaker for 10 minutes to induce cytolysis. The 96-well plates were let stand at room temperature for 10 minutes to stabilize the luminous signals. With white bottom membranes attached to the bottoms of the culture plates, the plates were read using EnSpire system. Data were processed by XLfit software to give IC50 values.
On the technique in general: In ATP-based viability assays light output follows the ATP content of the culture.

The test system of another assay is A172. The assay can be described thus: CTG cell proliferation, brain tumor cells A172. Conditions: Homo sapiens, A 172; A172, 72 hours, CellTiter-Glo; read-out: Inhibition of in vitro growth of brain tumor cells (IC50). On the procedure:
as §1, §2, §3, §4

For another assay, the system named is BE(2)-C. The assay is described as follows: CTG cell proliferation, brain tumor cells BE(2)-C. Conditions: Homo sapiens, 72 hours, CellTiter-Glo, read-out: Inhibition of in vitro growth of brain tumor cells (IC50). How it is done: as §1, §2, §3, §4
A further assay concerns LN229. The assay can be described thus: CTG cell proliferation, brain tumor cells LN229. Conditions: Homo sapiens, LN-229; LN229, 72 hours, CellTiter-Glo; read-out: Inhibition of in vitro growth of brain tumor cells (IC50). How it is done: as §1, §2, §3, §4
Assay [1] has as its system U87MG (brain glioma cell). The assay can be described thus: CTG cell proliferation, brain tumor cells U87MG. The settings on record: Homo sapiens, U-87 MG, 72 hours, CellTiter-Glo, read-out: Inhibition of in vitro growth of brain tumor cells (IC50). How it is done: as §1, §2, §3, §4
The test system of the next assay is SH-SY5Y. The assay is described as follows: CTG cell proliferation, brain tumor cells SH-SY5Y. The settings on record: Homo sapiens, 72 hours, CellTiter-Glo, read-out: Inhibition of in vitro growth of brain tumor cells (IC50). How it is done:
as §1, §2, §3, §4

The subject of another assay is KNS-42. The assay can be described thus: CTG cell proliferation, brain tumor cells KNS-42. The settings on record: Homo sapiens; KNS-42, 72 hours, CellTiter-Glo; read-out: Inhibition of in vitro growth of brain tumor cells (IC50). How it is done: as §1, §2, §3, §4
Another assay relates to SW-1088. The assay is described as follows: CTG cell proliferation, brain tumor cells SW-1088. Conditions: Homo sapiens, SW1088; SW-1088, 72 hours, CellTiter-Glo; read-out: Inhibition of in vitro growth of brain tumor cells (IC50). On the procedure: as §1, §2, §3, §4
The next assay concerns U118MG. The assay can be described thus: CTG cell proliferation, brain tumor cells U118MG. The settings on record: Homo sapiens, U-118-MG, 72 hours, CellTiter-Glo, read-out: Inhibition of in vitro growth of brain tumor cells (IC50). On the procedure: as §1, §2, §3, §4

Usually inhibition stands for the drop in the measured response relative to a control, in per cent. For `C[C@H]1CC[C@@]2(OC1)O[C@H]1C[C@H]3[C@@H]4CC[C@@H]5CC(NC(=O)C6CCN(C)CC6)CC[C@]5(C)[C@H]4CC[C@]3(C)[C@H]1[C@@H]2C` (stereo partly drawn) [Example 1], in the assay on A549 lung cancer cells, the inhibition at 1 µM was -5.25%, the inhibition at 5 µM was found to be 31.1% and the inhibition at 10 µM was determined as 87.6%.
What is called IC50 is the point on the concentration scale where inhibition reaches its midpoint. Take `C[C@H]1CC[C@@]2(OC1)O[C@H]1C[C@H]3[C@@H]4CC[C@@H]5C[C@@H](NC(=O)CCN6CCN(C)CC6)CC[C@]5(C)[C@H]4CC[C@]3(C)[C@H]1[C@@H]2C` [Example 2A]: the IC50 was determined as 1660 nM in the assay with A172; 2850 nM with BE(2)-C; 1620 nM with LN229; 1560 nM in assay [1]; 2780 nM in the assay with SH-SY5Y; 1770 nM in the assay with KNS-42. Besides, the IC50 in the assay with SW-1088 came to 660 nM; with U118MG, 1070 nM.
For the compound `C[C@H]1CC[C@@]2(OC1)O[C@H]1C[C@H]3[C@@H]4CC[C@@H]5C[C@H](NC(=O)CCN6CCN(C)CC6)CC[C@]5(C)[C@H]4CC[C@]3(C)[C@H]1[C@@H]2C` [Example 2B], the IC50 with A172 was 3840 nM; with BE(2)-C, 7900 nM; in the assay on LN229, 5520 nM; in assay [1], 4660 nM; in the assay with SH-SY5Y, greater than 10000 nM; in the assay on KNS-42, 4780 nM. The figures for the IC50 with SW-1088 and in the assay with U118MG were 2750 nM and 5170 nM, respectively.
With `C[C@H]1CC[C@@]2(OC1)O[C@H]1C[C@H]3[C@@H]4CC[C@@H]5CC(NC(=O)CCN6CCN(C)CC6)CC[C@]5(C)[C@H]4CC[C@]3(C)[C@H]1[C@@H]2C` (stereo partly drawn) [Example 2], in the assay with A549 lung cancer cells, the inhibition at 1 µM is 95.3%, the inhibition at 5 µM was 98.1% and the inhibition at 10 µM came out at 100%.
For the compound `C[C@H]1CC[C@@]2(OC1)O[C@H]1C[C@H]3[C@@H]4CC[C@@H]5CC(NC(=O)CN(C)C)CC[C@]5(C)[C@H]4CC[C@]3(C)[C@H]1[C@@H]2C` (stereo partly drawn) [Example 3], in the assay on A549 lung cancer cells, the inhibition at 1 µM was 1%, the inhibition at 5 µM was 86.2% and the inhibition at 10 µM stood at 99%.
In the case of `C[C@H]1CC[C@@]2(OC1)O[C@H]1C[C@H]3[C@@H]4CC[C@@H]5CC(NC(=O)CCN(C)C)CC[C@]5(C)[C@H]4CC[C@]3(C)[C@H]1[C@@H]2C` (stereo partly drawn) [Example 4], the IC50 in the assay on A172 was 3040 nM; in the assay with BE(2)-C, 3310 nM; in the assay with LN229, 2290 nM; in assay [1], 2360 nM; in the assay with SH-SY5Y it was 2800 nM; with KNS-42, 1920 nM. The IC50 with SW-1088 was determined as 2720 nM; with U118MG it was 1930 nM. In addition, in the assay with A549 lung cancer cells, the inhibition at 1 µM was determined as 18.2%. Also, the inhibition at 5 µM in the assay with A549 lung cancer cells was 99%. The inhibition at 10 µM in the assay with A549 lung cancer cells was 100%.
Take `C[C@H]1CC[C@@]2(OC1)O[C@H]1C[C@H]3[C@@H]4CC[C@@H]5CC(NC(=O)CC(=O)N6CCN(C)CC6)CC[C@]5(C)[C@H]4CC[C@]3(C)[C@H]1[C@@H]2C` (stereo partly drawn) [Example 5]: in the assay with A549 lung cancer cells, the inhibition at 1 µM worked out at 1.37%, the inhibition at 5 µM came to 48.3% and the inhibition at 10 µM was 95.9%.
Taken in the same sequence, the figures for `C[C@H]1CC[C@@]2(OC1)O[C@H]1C[C@H]3[C@@H]4CC[C@@H]5CC(NC(=O)CC(=O)NC6CCN(C)CC6)CC[C@]5(C)[C@H]4CC[C@]3(C)[C@H]1[C@@H]2C` (stereo partly drawn) [Example 6] were -6.51%, 82.2% and 99.8%.
Taken in the same sequence, the figures for `C[C@H]1CC[C@@]2(OC1)O[C@H]1C[C@H]3[C@@H]4CC[C@@H]5CC(NC(=O)CC(=O)NCC6CCN(C)CC6)CC[C@]5(C)[C@H]4CC[C@]3(C)[C@H]1[C@@H]2C` (stereo partly drawn) [Example 7] were -0.84%, 91.7% and 99.9%.
For `C[C@H]1CC[C@@]2(OC1)O[C@H]1C[C@H]3[C@@H]4CC[C@@H]5CC(NC(=O)CC(=O)NCCCN6CCOCC6)CC[C@]5(C)[C@H]4CC[C@]3(C)[C@H]1[C@@H]2C` (stereo partly drawn) [Example 8], in the assay on A549 lung cancer cells, the inhibition at 1 µM is 36.2%, the inhibition at 5 µM was determined as 7.71% and the inhibition at 10 µM is 93.5%.
`C[C@H]1CC[C@@]2(OC1)O[C@H]1C[C@H]3[C@@H]4CC[C@@H]5CC(NC(=O)CC(=O)N6CCC(N7CCCCC7)CC6)CC[C@]5(C)[C@H]4CC[C@]3(C)[C@H]1[C@@H]2C` (stereo partly drawn) [Example 9]: in the assay on A549 lung cancer cells, the inhibition at 1 µM was 2.09%, the inhibition at 5 µM amounted to 22.9% and the inhibition at 10 µM came out at 97.8%.
Taken in the same sequence, the figures for `C[C@H]1CC[C@@]2(OC1)O[C@H]1C[C@H]3[C@@H]4CC[C@@H]5CC(NC(=O)CC(=O)N6CCNCC6)CC[C@]5(C)[C@H]4CC[C@]3(C)[C@H]1[C@@H]2C` (stereo partly drawn) [Example 10] were 5.08%, 65.8% and 99.3%.
Taken in the same sequence, the figures for `C[C@H]1CC[C@@]2(OC1)O[C@H]1C[C@H]3[C@@H]4CC[C@@H]5CC(NC(=O)CC(=O)N6CC7CNCC7C6)CC[C@]5(C)[C@H]4CC[C@]3(C)[C@H]1[C@@H]2C` (stereo partly drawn) [Example 11] were 3.86%, 57.3% and 97.2%.
On to `C[C@H]1CC[C@@]2(OC1)O[C@H]1C[C@H]3[C@@H]4CC[C@@H]5CC(NC(=O)CC(=O)N6CCN(CCN7CCCC7)CC6)CC[C@]5(C)[C@H]4CC[C@]3(C)[C@H]1[C@@H]2C` (stereo partly drawn) [Example 12], for which, in the assay with A549 lung cancer cells, the inhibition at 1 µM worked out at 4.5%, the inhibition at 5 µM amounted to 89.6% and the inhibition at 10 µM came out at 98.5%.
